{"source": "patent US8889620B2", "about": "“Pharmaceutical compositions comprising peptide antagonists of vascular endothelial growth factor” (Children's Medical Center Corporation, priority 1997, dated 2014)", "key": {"KDR/Flk-1 [1]": {"system": "KDR/Flk-1", "experiment": "Cross-linking of 125I-VEGF165 to KDR/Flk-1 on HUVEC", "assay_type": "binding, human", "conditions": "15 ug/ml fusion protein, FIG. 4", "procedure": "(§1) FIG. 4. GST-EX 7+8 fusion protein inhibits cross-linking of ^125I-VEGF165 to ^125I-VEGF165R and to KDR/Flk-1. ^125I-VEGF165 (5 ng/ml) was bound to subconfluent cultures of HUVEC (lanes 1 and 2) and MDA-MB-23 1 cells (lanes 3 and 4) in 6-cm dishes. The binding was carried out in the presence (lanes 2 and 4) or the absence (lanes 1 and 3) of 15 ug/ml GST-Ex 7+8. Heparin (1 ug/ml) was added to each dish. At the end of a 2-h incubation, ^125I-VEGF165 was chemically cross-linked to the cell surface. The cells were lysed, and proteins were resolved by 6% SDS-PAGE. The gel was dried and exposed to x-ray film.\n(§2) Binding and cross-linking experiments using 125I-VEGF165 and 125I-VEGF121 were performed at described previously (Gitay-Goren, et al., J. Biol. Chem., 287, 6003-6096 (1992), Soker, et al., J: Biol. Chem., 271,5761-5767 (1996)). VEGF binding was quantified by measuring the cell-associated radioactivity in a y-counter (Beckman, Gamma 5500). The counts represent the average of three walls. All experiments were repeated at least three times, and similar results were obtained. 125I-VEGF cross-linked complexes were resolved by 6% SDS-PAGE, and the gels were exposed to a phosphor screen and scanned after 24 h by a PhosphorImager (Molecular Dynamics). Subsequently, the gels were exposed to x-ray film."}, "[2]": {"system": "VEGF165-induced proliferation of HUVEC", "experiment": "Inhibition of VEGF165-stimulated HUVEC proliferation", "assay_type": "cell-based, human", "procedure": "FIG. 6. GST-Ex 7+8 fusion protein inhibits VEGF165-stimulated HUVEC proliferation. HUVEC were cultured in 96-well dishes (5,000 cell/well) as in FIG. 2. Increasing concentrations of VEGF165 (open circles), together with 15 ug/ml GST-Ex 7+8 (closed circles) or 25 ug/ml GST (squares), were added to the medium, and the cells were incubated for 4 more days. DNA synthesis was measured in HUVEC as described in FIG. 2. The results represent the average counts of three wells, and the standard deviations were determined.\nFIG. 7. GST-Ex 7+8 fusion protein inhibits VEGF165 and VEGF121-stimulated HUVEC proliferation. Increasing concentration of VEGF165 (circles) or VEGF121 (square) with 15 ug/ml GST-Ex 7+8 (closed symbols) or without GST-Ex 7+8 (open symbols) were added to HUVEC, and [*H]thymidine incorporation into the DNA was measured as in FIG. 2. The results represent the average counts of three wells and the standard deviations were determined.\nHUVEC were seeded in gelatin-coated 96-well dishes at 4,000 cells/200 Ul/well in M-199 containing 5% FCS and GPS. After 24 H, VEGF isoforms and VEGF exon 7-GST fusion proteins were added to the wells at the same time. The cells were incubated for 72 h, and [3H]thymidine (1 pC/ml) was added for 10-12 h. The medium was aspirated, and the cells were trypsinized and harvested by an automatic cell harvester (TOMTEC) and loaded onto Filtermats (Wallac). The Filtermats were scanned and cpm were determined by a MicroBeta counter (Wallac). The results represent the average of samples assayed in triplicate, and the standard derivations were determined. All experiments were repeated at least three times and similar results were obtained."}, "KDR/Flk-1 [3]": {"system": "KDR/Flk-1", "experiment": "Cross-linking of 125I-VEGF121 to KDR/Flk-1 of HUVEC", "assay_type": "binding, human", "conditions": "15 ug/ml fusion protein, FIG. 8 lane 2", "procedure": "FIG. 8. GST-Ex 7+8 fusion protein inhibits cross-linking of ^125I-VEGF121 to KDR/Flk-1 of HUVEC ^125I-VEGF121 (2˜0 ng/ml) was bound to subconfluent cultures of HUVEC in 6-cm dishes. The binding was carried out in the presence (lane 2) or the absence (lane 1) of 15 ug/ml GST-Ex 7+8. Heparin (1 ug/ml) was added to each dish. At the end of a 2-h incubation, ^125I-VEGF was chemically cross-linked to the cell surface. The cells were lysed, and proteins were resolved by 6% SDS-PAGE. The gel was dried and exposed to x-ray film.\nas §2"}, "VEGF165R [4]": {"molecular_target": "T1, VEGF165R (Homo sapiens, UniProt O14786)", "T1 sequence (O14786 22-923)": "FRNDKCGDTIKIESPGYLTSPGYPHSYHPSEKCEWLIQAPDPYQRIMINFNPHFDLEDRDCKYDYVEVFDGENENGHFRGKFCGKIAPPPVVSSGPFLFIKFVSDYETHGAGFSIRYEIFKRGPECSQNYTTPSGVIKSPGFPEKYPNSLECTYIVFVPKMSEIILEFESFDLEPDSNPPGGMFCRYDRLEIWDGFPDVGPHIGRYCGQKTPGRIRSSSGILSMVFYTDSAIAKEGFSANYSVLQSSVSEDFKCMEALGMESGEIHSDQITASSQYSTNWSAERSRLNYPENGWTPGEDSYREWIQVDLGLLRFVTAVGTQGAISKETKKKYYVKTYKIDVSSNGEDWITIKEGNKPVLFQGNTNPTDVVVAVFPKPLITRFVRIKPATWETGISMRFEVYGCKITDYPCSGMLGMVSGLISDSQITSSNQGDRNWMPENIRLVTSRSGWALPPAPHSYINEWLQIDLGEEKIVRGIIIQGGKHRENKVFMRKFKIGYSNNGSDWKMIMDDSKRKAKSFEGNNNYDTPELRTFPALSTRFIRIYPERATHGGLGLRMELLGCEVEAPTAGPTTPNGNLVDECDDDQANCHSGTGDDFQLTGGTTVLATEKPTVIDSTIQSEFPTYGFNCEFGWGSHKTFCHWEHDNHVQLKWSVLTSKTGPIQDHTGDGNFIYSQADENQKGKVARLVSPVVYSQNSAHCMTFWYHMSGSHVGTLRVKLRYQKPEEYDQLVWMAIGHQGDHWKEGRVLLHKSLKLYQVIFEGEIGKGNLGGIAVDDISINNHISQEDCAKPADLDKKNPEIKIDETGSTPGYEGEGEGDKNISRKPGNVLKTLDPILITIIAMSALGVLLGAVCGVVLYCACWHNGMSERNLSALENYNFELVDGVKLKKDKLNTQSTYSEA", "experiment": "Direct binding/cross-linking of 125I-GST-Ex 7 to HUVEC: VEGF165R", "design": "HUVEC, which express both KDR/Flk-1 and VEGF165R; endogenous in cells; host or cells: HUVEC (ATCC)", "conditions": "cross-linking, 1 ug/ml heparin, FIG. 1 lane 3", "procedure": "FIG. 1. Cross-linking of 1 ^125I-VEGF165, ^125I-VEGF121 and ^125I-GST-EX 7 to HUVEC. ^125I-VEGF165 (5 ng/ml) (lane 1) or ^125I-VEGF121 (10 ng/ml) (lane 2) or ^125I-GST-EX 7 (50 nglml) (lane 3) were bound to subconfluent cultures of HUVEC in 6-cm dishes. The binding was carried out in the presence of 1 ug/ml heparin. At the end of a 2-H incubation, each ^125I-VEGF isoform was chemically cross-linked to the cell surface. The cells were lysed and proteins were resolved by 6% SDS-PAGE. The polyacrylamide gel was dried and exposed to x-ray film.\nas §2"}, "VEGF165R [5]": {"molecular_target": "T1, VEGF165R", "experiment": "Cross-linking of 125I-VEGF165 to VEGF165R on HUVEC", "assay_type": "binding", "design": "HUVEC, which express both KDR/Flk-1 and VEGF165R; endogenous in cells; host or cells: HUVEC (ATCC)", "conditions": "15 ug/ml fusion protein, FIG. 4 lane 2", "procedure": "as §1, §2"}, "KDR/Flk-1 [6]": {"molecular_target": "KDR/Flk-1 (Homo sapiens, UniProt P35968)", "sequence (P35968 20-1356)": "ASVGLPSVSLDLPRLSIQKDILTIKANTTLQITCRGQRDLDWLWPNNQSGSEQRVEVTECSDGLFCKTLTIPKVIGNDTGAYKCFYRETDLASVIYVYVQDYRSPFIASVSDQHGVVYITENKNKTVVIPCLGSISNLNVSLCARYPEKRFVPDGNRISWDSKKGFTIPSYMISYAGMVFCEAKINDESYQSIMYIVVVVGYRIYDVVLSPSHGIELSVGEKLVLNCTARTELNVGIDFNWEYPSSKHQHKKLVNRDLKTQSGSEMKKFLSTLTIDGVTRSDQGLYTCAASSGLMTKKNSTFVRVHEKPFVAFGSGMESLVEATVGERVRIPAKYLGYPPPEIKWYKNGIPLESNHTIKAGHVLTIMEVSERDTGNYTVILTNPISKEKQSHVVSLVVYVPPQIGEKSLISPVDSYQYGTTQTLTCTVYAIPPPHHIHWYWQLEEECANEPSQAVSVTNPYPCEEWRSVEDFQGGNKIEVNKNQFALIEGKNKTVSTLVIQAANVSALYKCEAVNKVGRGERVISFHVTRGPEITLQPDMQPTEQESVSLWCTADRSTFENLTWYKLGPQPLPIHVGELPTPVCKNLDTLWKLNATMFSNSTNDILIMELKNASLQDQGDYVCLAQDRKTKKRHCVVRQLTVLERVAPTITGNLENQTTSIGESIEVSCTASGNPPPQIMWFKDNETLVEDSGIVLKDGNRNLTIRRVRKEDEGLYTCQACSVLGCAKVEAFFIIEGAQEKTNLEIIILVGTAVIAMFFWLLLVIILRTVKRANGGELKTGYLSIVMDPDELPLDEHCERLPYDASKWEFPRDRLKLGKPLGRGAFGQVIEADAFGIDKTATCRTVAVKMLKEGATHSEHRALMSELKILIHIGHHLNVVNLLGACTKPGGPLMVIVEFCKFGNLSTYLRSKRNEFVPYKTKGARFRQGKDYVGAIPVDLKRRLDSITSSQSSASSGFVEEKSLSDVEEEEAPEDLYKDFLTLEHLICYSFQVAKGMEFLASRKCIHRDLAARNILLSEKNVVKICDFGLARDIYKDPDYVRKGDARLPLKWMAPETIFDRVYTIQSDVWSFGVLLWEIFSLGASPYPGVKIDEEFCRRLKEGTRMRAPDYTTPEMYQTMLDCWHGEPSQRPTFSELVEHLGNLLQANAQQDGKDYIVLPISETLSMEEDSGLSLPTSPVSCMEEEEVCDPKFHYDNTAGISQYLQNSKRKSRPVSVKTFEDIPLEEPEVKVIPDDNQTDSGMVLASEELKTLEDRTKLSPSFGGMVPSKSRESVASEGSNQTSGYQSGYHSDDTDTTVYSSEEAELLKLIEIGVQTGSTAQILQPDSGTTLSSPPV", "experiment": "Cross-linking of 125I-VEGF165 to KDR/Flk-1 on PAE-KDR cells", "assay_type": "binding, porcine endothelial cells transfected to express KDR/Flk-1", "design": "expressed in transfected cells; host or cells: porcine endothelial cells (PAE), gift of Dr. Claesson-Welsh", "conditions": "data not shown", "procedure": "as §2"}}, "note": "Entries after “also recorded” stand apart in the source; their conditions may differ. Where no end group is shown, it is not given here.", "data": [{"substance": "GST-Ex 7+8: GST fusion protein containing the peptide encoded by VEGF165 exons 7 and 8 (PCGPCSERRKHLFVQDPQTCKCSCKNTDSRCKARQLELNERTCRCDKPRR; cysteine pairing not given here; also: GST fusion protein, side of fusion not given here)", "values": [{"measurement": "binding/cross-linking of 125I-VEGF165 to KDR/Flk-1 on HUVEC (in words)", "setting": "KDR/Flk-1 [1]", "value": "inhibits indirectly; also recorded: inhibited"}, {"measurement": "reduction of VEGF165-induced HUVEC proliferation", "setting": "[2]; 15 ug/ml fusion protein added with VEGF165, FIG. 6", "value": "about 60%"}, {"measurement": "inhibition of the level of VEGF165-induced mitogenicity", "setting": "[2]; FIG. 7, 15 ug/ml", "value": "about 2 fold"}, {"measurement": "formation of 240-kDa 125I-VEGF121/KDR/Flk-1 cross-linked complexes on HUVEC (in words)", "setting": "KDR/Flk-1 [3]", "value": "significantly inhibited; also recorded: diminished binding"}, {"measurement": "direct binding to VEGF165R on HUVEC (in words)", "setting": "VEGF165R [4]", "value": "binds"}, {"measurement": "formation of 165-175-kDa 125I-VEGF165/VEGF165R cross-linked complexes on HUVEC (in words)", "setting": "VEGF165R [5]", "value": "markedly inhibited"}, {"measurement": "cross-linking of 125I-VEGF165 to KDR/Flk-1 on PAE-KDR cells (in words)", "setting": "KDR/Flk-1 [6]", "value": "did not inhibit"}]}]}
